Laboratory results reported in the NIST ThermoML archive (doi:10.1021/je200806n).

Legend:
[1] = 101.3 kPa, Liquid
[2] = xn = mol fraction of the nth substance listed; conditions: 101.3 kPa, Liquid

CCCCCC(C)O (centres undefined) [2-heptanol]
[1]
Conditions | mass density [kg/m3] | viscosity [mPa·s]
298.15 K | 813.18 | 5.023
303.15 K | 809.26 | 4.151
308.15 K | 805.01 | 3.478
313.15 K | 801.14 | 2.852

CCCCC(C)O (centres undefined) [2-hexanol]
[1]
Conditions | mass density [kg/m3] | viscosity [mPa·s]
298.15 K | 810.14 | 4.101
303.15 K | 806.13 | 3.411
308.15 K | 802.06 | 2.819
313.15 K | 797.96 | 2.219

CCC(C)O (centres undefined) [butan-2-ol]
[1]
Conditions | mass density [kg/m3] | viscosity [mPa·s]
298.15 K | 803.01 | 3.104
303.15 K | 798.29 | 2.597
308.15 K | 793.57 | 2.152
313.15 K | 789.15 | 1.733

O=C1CCCCC1 [cyclohexanone]
[1]
Conditions | mass density [kg/m3] | viscosity [mPa·s]
298.15 K | 941.91 | 2.057
303.15 K | 937.24 | 1.847
308.15 K | 932.67 | 1.694
313.15 K | 927.72 | 1.546

CCCC(C)O (centres undefined) [pentan-2-ol]
[1]
Conditions | mass density [kg/m3] | viscosity [mPa·s]
298.15 K | 805.41 | 3.499
303.15 K | 801.21 | 2.801
308.15 K | 796.64 | 2.334
313.15 K | 792.51 | 1.993

CCCC(C)O (centres undefined) [pentan-2-ol] + O=C1CCCCC1
[2]
Conditions | mass density, 298.15 K [kg/m3] | mass density, 303.15 K [kg/m3] | mass density, 308.15 K [kg/m3] | mass density, 313.15 K [kg/m3] | viscosity, 298.15 K [mPa·s] | viscosity, 303.15 K [mPa·s] | viscosity, 308.15 K [mPa·s] | viscosity, 313.15 K [mPa·s]
x2 = 0 | 805.41 | 801.21 | 796.64 | 792.51 | 3.499 | 2.801 | 2.334 | 1.993
x2 = 0.0824 | 815.31 | 810.99 | 806.31 | 801.99 | 2.631 | 2.307 | 1.891 | 1.596
x2 = 0.1615 | 825.12 | 820.69 | 815.92 | 811.53 | 2.178 | 1.893 | 1.541 | 1.285
x2 = 0.2401 | 835.08 | 830.58 | 825.68 | 821.06 | 1.822 | 1.58 | 1.265 | 1.056
x2 = 0.3492 | 849.18 | 844.64 | 839.56 | 834.77 | 1.465 | 1.241 | 1.007 | 0.838
x2 = 0.4397 | 861.19 | 856.51 | 851.41 | 846.47 | 1.277 | 1.081 | 0.881 | 0.75
x2 = 0.5607 | 877.71 | 872.97 | 867.74 | 862.65 | 1.191 | 1.016 | 0.865 | 0.771
x2 = 0.6496 | 890.14 | 885.41 | 880.19 | 875.09 | 1.23 | 1.072 | 0.935 | 0.848
x2 = 0.7399 | 903.04 | 898.27 | 893.11 | 888.08 | 1.354 | 1.205 | 1.062 | 0.982
x2 = 0.8498 | 919.21 | 914.43 | 909.42 | 904.33 | 1.597 | 1.417 | 1.294 | 1.194
x2 = 0.9396 | 932.71 | 928.12 | 923.33 | 917.99 | 1.855 | 1.685 | 1.523 | 1.388

CC(C)O [propan-2-ol]
[1]
Conditions | mass density [kg/m3] | viscosity [mPa·s]
298.15 K | 781.09 | 2.055
303.15 K | 776.57 | 1.788
308.15 K | 771.87 | 1.563
313.15 K | 767.36 | 1.378

CC(C)O [propan-2-ol] + O=C1CCCCC1
[2], x2 = 0
Conditions | mass density [kg/m3] | viscosity [mPa·s]
298.15 K | 781.09 | 2.055
303.15 K | 776.57 | 1.788
308.15 K | 771.87 | 1.563
313.15 K | 767.36 | 1.378
